In brackets after ≈: the same amount, converted by molar mass.
Assay: initial solubility of the active ingredient
Format: physicochemical
Settings: active ingredient without liposomes, aqueous

For `O=C(O)c1nn(Cc2ccc(Cl)cc2Cl)c2ccccc12` [lonidamine], the solubility was 3 µg/mL (≈ 9.34 µM).

From patent US6337087B1, “Aqueous pharmaceutical composition comprising an active ingredient which is highly insoluble in water” (Aziende Chimiche Riunite Angelini Francesco A.C.R.A.F. …, priority 1997, dated 2002)
